Legend:
ML-2 = assay: cells; design: species or system AML cell lines (8); Secondary HTS, 10-point dose-response in triplicate, Cell Titer Glo viability, four-parameter fit EC50; settings: Homo sapiens, ML-2, 72 h, read-out: ML-2
U937 [1] = assay: Secondary dose-response HTS, Cell Titer Glo; assay type: cell-based, human; settings: Homo sapiens, U-937; secondary high-throughput screen; U937; read-out: average effective concentration, U937
CMS = assay: cells; design: species or system AML cell lines (8); Secondary HTS, 10-point dose-response in triplicate, Cell Titer Glo viability, four-parameter fit EC50; settings: 72 h, read-out: CMS
CHRF288-11 [2] = assay: Secondary dose-response HTS, Cell Titer Glo; assay type: cell-based, human; settings: Homo sapiens, HTS; secondary high-throughput screen; CHRF288-11; read-out: average effective concentration, CHRF288-11
MOLM-13 [3] = assay: Secondary dose-response HTS, Cell Titer Glo; assay type: cell-based, human; settings: Homo sapiens; secondary high-throughput screen; MOLM-13; read-out: average effective concentration, MOLM-13
MV4-11 [4] = assay: Secondary dose-response HTS, Cell Titer Glo; assay type: cell-based, human; settings: Homo sapiens; secondary high-throughput screen; MV4-11; read-out: average effective concentration, MV4-11
CMK [5] = assay: cells; design: species or system AML cell lines (8); Secondary HTS, 10-point dose-response in triplicate, Cell Titer Glo viability, four-parameter fit EC50; settings: Homo sapiens, CMK, 72 h, read-out: CMK
M07e = assay: cells; design: species or system AML cell lines (8); Secondary HTS, 10-point dose-response in triplicate, Cell Titer Glo viability, four-parameter fit EC50; settings: M-07e, 72 h, read-out: M07e
MOLM-13 [6] = assay: cells; design: species or system AML cell lines (8); Secondary HTS, 10-point dose-response in triplicate, Cell Titer Glo viability, four-parameter fit EC50; settings: Homo sapiens, MOLM-13, 72 h, read-out: MOLM-13
CHRF288-11 [7] = assay: cells; design: species or system AML cell lines (8); Secondary HTS, 10-point dose-response in triplicate, Cell Titer Glo viability, four-parameter fit EC50; settings: 72 h, read-out: CHRF288-11
U937 [8] = assay: cells; design: species or system AML cell lines (8); Secondary HTS, 10-point dose-response in triplicate, Cell Titer Glo viability, four-parameter fit EC50; settings: Homo sapiens, U-937, 72 h, read-out: U937
CMK [9] = assay: Secondary dose-response HTS, Cell Titer Glo; assay type: cell-based, human; settings: Homo sapiens; secondary high-throughput screen; CMK; read-out: average effective concentration, CMK
MV4-11 [10] = assay: cells; design: species or system AML cell lines (8); Secondary HTS, 10-point dose-response in triplicate, Cell Titer Glo viability, four-parameter fit EC50; settings: Homo sapiens, MV4-11, 72 h, read-out: MV4-11

SMILES	EC50 (ML-2)	EC50 (U937 [1])	EC50 (CMS)	EC50 (CHRF288-11 [2])	EC50 (MOLM-13 [3])	EC50 (MV4-11 [4])	EC50 (CMK [5])	EC50 (M07e)	EC50 (MOLM-13 [6])	EC50 (CHRF288-11 [7])	EC50 (U937 [8])	EC50 (CMK [9])	EC50 (MV4-11 [10])
CC(C)c1c(C(=O)Nc2ccccc2)c(-c2ccccc2)c(-c2ccc(F)cc2)n1CC[C@@H](O)C[C@@H](O)CC(=O)O [ATORVASTATIN]	> 10 µM	> 10 µM	> 10 µM	> 10 µM	> 10 µM	> 10 µM	> 10 µM	> 10 µM					
C=C(c1ccc(C(=O)O)cc1)c1cc2c(cc1C)C(C)(C)CCC2(C)C [BEXAROTENE]	> 10 µM		> 10 µM			2.1 µM		> 10 µM	> 10 µM	> 10 µM	> 10 µM	8.1 µM	
Cn1c(=O)n(-c2ccc(C(C)(C)C#N)cc2)c2c3cc(-c4cnc5ccccc5c4)ccc3ncc21 [DACTOLISIB]	> 10 µM		> 10 µM					> 10 µM	> 10 µM	> 10 µM	> 10 µM	0.066 µM	> 10 µM
Cc1nc(C(=O)NCC(=O)O)c(O)c2ccc(Oc3ccccc3)cc12 [FG-4592]	> 10 µM		> 10 µM		0.002 µM		> 10 µM	> 10 µM		> 10 µM	> 10 µM		> 10 µM
CCC(C)n1ncn(-c2ccc(N3CCN(c4ccc(OCC5COC(Cn6cncn6)(c6ccc(Cl)cc6Cl)O5)cc4)CC3)cc2)c1=O (centres unmarked) [ITRACONAZOLE]	> 10 µM		> 10 µM					> 10 µM	> 10 µM	> 10 µM	> 10 µM	6.4 µM	> 10 µM
CC[C@H](C)C(=O)O[C@H]1C[C@@H](C)C=C2C=C[C@H](C)[C@H](CC[C@@H]3C[C@@H](O)CC(=O)O3)[C@H]21 [LOVASTATIN]	> 10 µM		> 10 µM	6.3 µM	> 10 µM		> 10 µM	> 10 µM			> 10 µM		> 10 µM
CC[C@H](C)C(=O)O[C@H]1CCC=C2C=C[C@H](C)[C@H](CC[C@@H]3C[C@@H](O)CC(=O)O3)[C@H]21 [MEVASTATIN]	> 10 µM		> 10 µM	6.6 µM	8.9 µM		> 10 µM	> 10 µM			> 10 µM		> 10 µM
Cc1ncc(CNC(=O)N(CCCl)N=O)c(N)n1 [NIMUSTINE]	> 10 µM		> 10 µM					> 10 µM	> 10 µM	> 10 µM	> 10 µM	10 µM	> 10 µM
CCc1nc(N)nc(N)c1-c1ccc(Cl)cc1 [PYRIMETHAMINE]	> 10 µM		> 10 µM		4.5 µM	> 10 µM	> 10 µM	> 10 µM		> 10 µM	> 10 µM		
CNC(=O)c1cc(Oc2ccc(NC(=O)Nc3ccc(Cl)c(C(F)(F)F)c3)c(F)c2)ccn1 [REGORAFENIB]	> 10 µM		> 10 µM		1.5 µM	0.34 µM	> 10 µM	> 10 µM		> 10 µM	> 10 µM		
Oc1ccc(/C=C/c2cc(O)cc(O)c2)cc1 [RESVERATROL]	> 10 µM		> 10 µM		8.9 µM	> 10 µM	> 10 µM	> 10 µM		> 10 µM	> 10 µM		
CC(C(=O)Nc1cccc(/N=C/c2c(O)ccc3ccccc23)c1)c1ccccc1 (centres unmarked) [SALERMIDE]	> 10 µM	6.6 µM	> 10 µM		7 µM		> 10 µM	> 10 µM		> 10 µM			> 10 µM
CCCC(CCC)C(=O)O [VALPROATE SODIUM]	> 10 µM		> 10 µM		0.077 µM		> 10 µM	> 10 µM		> 10 µM	> 10 µM		> 10 µM
